Values joined by “and” are separate entries in the source; they are usually repeats but may differ in a detail not shown here. Equal entries are not always repeated.
Experiments:
Experiment in all cases: Postemergence foliar-applied weed control, direct-seeded rice (greenhouse)
BRAPP = assay type: in vivo
From the text: (§1) Seeds or nutlets of the desired test plant species were planted in a soil matrix prepared by mixing aloam or sandy loam soil (e.g., 28.6 percent silt, 18.8 percent clay, and 52.6 percent sand, with a pH of about 5.8 and an organic matter content of about 1.8 percent) and calcareous grit in an 80 to 20 ratio. The soil matrix was contained in plastic pots with a volume of 1 quart and a surface area of 83.6 square centimeters (cm^2). When required to ensure good germination and healthy plants, a fungicide treatment and/or other chemical or physical treatment was applied. The plants were grown for 8-22 days in a greenhouse with an approximate 14 hour (h) photoperiod which was maintained at about 29° C. during the day and 26° C. during the night. Nutrients (Peters Excel® 15-5-15 5-Ca 2-Mg and iron chelate) were applied in the irrigation solution as needed and water was added on a regular basis. Supplemental lighting was provided with overhead metal halide 1000-Watt lamps as necessary. The plants were employed for testing when they reached the first through fourth true leaf stage.
(§2) Treatments consisted of the acid or esters of 4-amino-3-chloro-5-fluoro-6-(4-chloro-2-fluoro-3-methoxy-phenyl)pyridine-2-carboxylic acid (Compound A), each formulated as an SC (suspension concentrate), and various fungicidal components alone and in combination. Forms of compound A were applied on an acid equivalent basis.
Treatment requirements were calculated based upon the rates being tested, the concentration of active ingredient or acid equivalent in the formulation and a 12 milliliter (mL) application volume at a rate of 187 liters per hectare (L/ha).
For treatments comprised of formulated compounds, measured amounts of compounds were placed individually in 25 mL glass vials and diluted in a volume of 1.25% volume per volume (v/v) Agri-Dex® crop oil concentrate to obtain 12× stock solutions. […] Application solutions were prepared by adding an appropriate amount of each stock solution (e.g., 1 mL) and diluted to the appropriate final concentrations with the addition of […] of an aqueous mixture of 1.25% (v/v) crop oil concentrate so that the final spray solutions contained 1.25+/−0.05% (v/v) crop oil concentrate.
For treatments comprised of technical compounds, weighed amounts can be placed individually in 25 mL glass vials and dissolved in a volume of 97:3 volume per volume (v/v) acetone/dimethyl sulfoxide (DMSO) to obtain 12× stock solutions. […] When technical materials are used, the concentrated stock solutions can be added to the spray solutions so that the final acetone and DMSO concentrations of the application solutions are 16.2% and 0.5%, respectively.
As required, additional water and/or 97:3 v/v acetone/DMSO was added to individual application solutions so that the final acetone and DMSO concentrations of the application solutions being compared were 8.1% and 0.25%, respectively
All stock solutions and applications solutions were visually inspected for compound compatibility prior to application. Spray solutions were applied to the plant material with an overhead Mandel track sprayer equipped with 8002E nozzles calibrated to deliver 187 L/ha over an application area of 0.503 square meters (m^2) at a spray height of 18 to 20 inches (46 to 50 cm) above average plant canopy height. Control plants were sprayed in the same manner with the solvent blank.
(§3) The treated plants and control plants were placed in a greenhouse as described above and watered by sub-irrigation to prevent wash-off of the test compounds. After approximately 3 weeks, the condition of the test plants as compared with that of the untreated plants was determined visually and scored on a scale of 0 to 100 percent where 0 corresponds to no injury or growth inhibition and 100 corresponds to complete kill. […]

ECHOR = assay type: in vivo, Echinochloa oryzoides (Ard.) Fritsch (early watergrass); conditions: r78-80 ester 8/16/32 g ae/ha alone, r81-83 difenoconazole 50/100/200 g ai/ha alone, r84-92 ester 8/16/32 at each of 50, 100, 200
Method: as §1, with “When required to ensure good germination and healthy plants, a fungicide treatment and/or other chemical or physical treatment was applied.” left out
as §2
For treatments comprised of formulated compounds, measured amounts of compounds were placed individually in 25 mL glass vials and diluted in a volume of 1.25% volume per volume (v/v) Agri-Dex® crop oil concentrate to obtain 12× stock solutions. […]
as §3

IPOHE = assay type: in vivo, Ipomoea hederacea (L.) Jacq. (ivyleaf morningglory); conditions: r10-12 ester 4.38/8.75/17.5 g ae/ha alone, r13 difenoconazole 200 g ai/ha alone, r14-16 ester 4.38/8.75/17.5 + 200

COc1c(Cl)ccc(-c2nc(C(=O)OCc3ccccc3)c(Cl)c(N)c2F)c1F [Compound A Benzyl Ester]
Visual Weed Control (%)—20 DAA BRAPP Obs (BRAPP; 20 DAA, r9-11 ester 8/16/32 g ae/ha alone, r12 isotianil 200 g ai/ha alone, r13-15 ester 8/16/32 + 200): 85% and 90% and 60% | Visual Weed Control (%)—21 DAA BRAPP Obs (BRAPP; r29-30 ester 8/16 g ae/ha alone, r31-33 hexaconazole 25/50/100 g ai/ha alone, r34-39 ester 8/16 at each of 25, 50, 100): 55% and 60% | Visual Weed Control (%)—21 DAA BRAPP Obs (BRAPP; r38-39 ester 8/16 g ae/ha alone, r40 isotianil 380 g ai/ha alone, r41-42 ester 8/16 + 380): 55% and 60% | Visual Weed Control (%) - 21 DAA ECHOR Obs (ECHOR): 45% and 43% and 70% | Visual Weed Control (%) - 21 DAA IPOHE Obs (IPOHE): 10% and 20%

Source: patent US9730445B2, “Herbicidal compositions comprising 4-amino-3-chloro-5-fluoro-6-(4-chloro-2-fluoro-3-methoxyphenyl) pyridine-2-carboxylic acid or a derivative thereof and fungicides” (DOW AGROSCIENCES LLC, priority 2013, dated 2017)
